Target: AM2 S31 (wild-type serine at position 31 in the M2 protein), influenza virus A/Udorn/72 (Influenza A virus, UniProt P0DOF5)
Test: cell-based
Conditions: 100 uM; Xenopus oocytes; activity range class; read-out: S31 OOcyte Inhibition at 100 uM (%)

Sequence of AM2 S31 (wild-type serine at position 31 in the M2 protein), influenza virus A/Udorn/72 (P0DOF5 whole entry, looked up): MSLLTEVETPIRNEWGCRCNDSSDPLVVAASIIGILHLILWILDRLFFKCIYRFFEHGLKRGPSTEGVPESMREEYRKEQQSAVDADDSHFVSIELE

Compound | inhibition at 100 µM
Brc1ccc(CNC23CC4CC(CC(C4)C2)C3)nc1 [Example 54a, Adamantan-1-yl-(5-bromo-pyridin-2-ylmethyl)-amine] | 31 to 95%
c1csc(-c2ccc(CNC34CC5CC(CC(C5)C3)C4)nc2)c1 [Example 55a, Adamantan-1-yl-(5-thiophen-2-yl-pyridin-2-ylmethyl)-amine] | 31 to 95%
c1ccc2nc(CNC34CC5CC(CC(C5)C3)C4)ccc2c1 [Example 56a, Adamantan-1-yl-quinolin-2-ylmethyl-amine] | 31 to 95%
Brc1ncc(CNC23CC4CC(CC(C4)C2)C3)cn1 [Example 57a, N-((2-bromopyrimidin-5-yl)methyl)adamantan-1-amine] | 0 to 30%
c1csc(-c2ccc(CNC34CC5CC(CC(C5)C3)C4)cn2)c1 [Example 58a, N-((6-(thiophen-2-yl)pyridin-3-yl)methyl)adamantan-1-amine] | 31 to 95%
c1cc(-c2ccc(CNC34CC5CC(CC(C5)C3)C4)cn2)cs1 [Example 59a, N-((6-(thiophen-3-yl)pyridin-3-yl)methyl)adamantan-1-amine] | 0 to 30%
c1coc(-c2ccc(CNC34CC5CC(CC(C5)C3)C4)cn2)c1 [Example 60a, N-((6-(furan-2-yl)pyridin-3-yl)methyl)adamantan-1-amine] | 0 to 30%
c1csc(-c2ncc(CNC34CC5CC(CC(C5)C3)C4)cn2)c1 [Example 61a, N-((2-(thiophen-2-yl)pyrimidin-5-yl)methyl)adamantan-1-amine] | 0 to 30%
c1coc(-c2ncc(CNC34CC5CC(CC(C5)C3)C4)cn2)c1 [Example 62a, N-((2-(furan-2-yl)pyrimidin-5-yl)methyl)adamantan-1-amine] | 0 to 30%
c1ccc(-c2ncc(CNC34CC5CC(CC(C5)C3)C4)cn2)cc1 [Example 63a, N-((2-phenylpyrimidin-5-yl)methyl)adamantan-1-amine] | 0 to 30%
c1ccc(-c2ncc(CNC34CC5CC(CC(C5)C3)C4)cn2)nc1 [Example 64a, N-((2-(pyridin-2-yl)pyrimidin-5-yl)methyl)adamantan-1-amine] | 0 to 30%
Oc1cccc2ccc(CNC34CC5CC(CC(C5)C3)C4)nc12 [Example 65a, 2-((adamantan-1-ylamino)methyl)quinolin-8-ol] | 31 to 95%
c1cc(CNC23CC4CC(CC(C4)C2)C3)co1 [Example 66a, Adamantan-1-yl-furan-3-ylmethyl-amine] | 31 to 95%
Cc1ccc(CNC23CC4CC(CC(C4)C2)C3)o1 [Example 67a] | 31 to 95%
c1cc(CNC23CC4CC(CC(C4)C2)C3)cs1 [Example 68a, Adamantan-1-yl-thiophen-3-ylmethyl-amine] | 31 to 95%
c1coc(CNC23CC4CC(CC(C4)C2)C3)c1 [Example 69a, Adamantan-1-yl-furan-2-ylmethyl-amine] | 31 to 95%
c1csc(CNC23CC4CC(CC(C4)C2)C3)c1 [Example 70a, Adamantan-1-yl-thiophen-2-ylmethyl-amine] | 31 to 95%
c1csc(CNC23CC4CC(CC(C4)C2)C3)n1 [Example 71a, Adamantan-1-yl-thiazol-2-ylmethyl-amine] | 31 to 95%

Same assay, conditions: Table 1; 100 uM; Xenopus oocytes, pH 5.5, -20 mV; read-out: S31 OOcyte Inhibition at 100 uM (%)

Compound | inhibition at 100 µM
CSc1ccc(CNC23CC4CC(CC(C4)C2)C3)c(SC)c1 [Example 55, Adamantan-1-yl-(2,4-bis-methylsulfanyl-benzyl)-amine] | 0 to 30%
COc1cc(O)ccc1CNC12CC3CC(CC(C3)C1)C2 [Example 56, 4-(Adamantan-1-ylaminomethyl)-3-methoxy-phenol] | 0 to 30%
Oc1cc(OCc2ccccc2)ccc1CNC12CC3CC(CC(C3)C1)C2 [Example 57, 2-(Adamantan-1-ylaminomethyl)-5-benzyloxy-phenol] | 31 to 95%
Oc1ccc(CNC23CC4CC(CC(C4)C2)C3)c(Cl)c1 [Example 58, 4-(Adamantan-1-ylaminomethyl)-3-chloro-phenol] | 31 to 95%
COc1ccc(CNC23CC4CC(CC(C4)C2)C3)c(OC)c1 [Example 59, Adamantan-1-yl-(2,4-dimethoxy-benzyl)-amine] | 0 to 30%
CC(=O)Oc1ccc(CNC23CC4CC(CC(C4)C2)C3)c(O)c1 [Example 60, Acetic acid 4-(adamantan-1-ylaminomethyl)-3-hydroxy-phenyl ester] | 31 to 95%
COc1ccc(CNC23CC4CC(CC(C4)C2)C3)cc1O [Example 61, 5-(Adamantan-1-ylaminomethyl)-2-methoxy-phenol] | 31 to 95%
Fc1ccc(C(F)(F)F)cc1CNC12CC3CC(CC(C3)C1)C2 [Example 62, Adamantan-1-yl-(2-fluoro-5-trifluoromethyl-benzyl)-amine] | 0 to 30%
COc1ccc(F)c(CNC23CC4CC(CC(C4)C2)C3)c1 [Example 63, Adamantan-1-yl-(2-fluoro-5-methoxy-benzyl)-amine] | 31 to 95%
Oc1cccc(CNC23CC4CC(CC(C4)C2)C3)c1O [Example 64, 3-(Adamantan-1-ylaminomethyl)-benzene-1,2-diol] | 31 to 95%
Oc1ccc(CNC23CC4CC(CC(C4)C2)C3)c(O)c1O [Example 65, 4-(Adamantan-1-ylaminomethyl)-benzene-1,2,3-triol] | 0 to 30%
COc1cc(O)cc(OC)c1CNC12CC3CC(CC(C3)C1)C2 [Example 66, 4-(Adamantan-1-ylaminomethyl)-3,5-dimethoxy-phenol] | 31 to 95%
COc1cc(F)c(CNC23CC4CC(CC(C4)C2)C3)c(F)c1 [Example 67, Adamantan-1-yl-(2,6-difluoro-4-methoxy-benzyl)-amine] | 31 to 95%
Oc1c(F)cc(CNC23CC4CC(CC(C4)C2)C3)cc1Cl [Example 68, 4-(Adamantan-1-ylaminomethyl)-2-chloro-6-fluoro-phenol] | 31 to 95%
Oc1cc(F)c(CNC23CC4CC(CC(C4)C2)C3)c(F)c1 [Example 69, 4-(Adamantan-1-ylaminomethyl)-3,5-difluoro-phenol] | 31 to 95%
Oc1cc(O)c(CNC23CC4CC(CC(C4)C2)C3)c(O)c1 [Example 70, 2-(Adamantan-1-ylaminomethyl)-benzene-1,3,5-triol] | 0 to 30%
Oc1c(F)c(F)c(CNC23CC4CC(CC(C4)C2)C3)c(F)c1F [Example 71, 4-(Adamantan-1-ylaminomethyl)-2,3,5,6-tetrafluoro-phenol] | 0 to 30%

Same assay, conditions: Table 3; 100 uM; Xenopus oocytes, pH 5.5, -20 mV; read-out: S31 OOcyte Inhibition at 100 uM (%)

Compound | inhibition at 100 µM
c1nc(N2CCCC2)ncc1CNC12CC3CC(CC(C3)C1)C2 [Example 54b, N-((2-(pyrrolidin-1-yl)pyrimidin-5-yl)methyl)adamantan-1-amine] | 0 to 30%
COc1ncc(CNC23CC4CC(CC(C4)C2)C3)cn1 [Example 55b, N-((2-methoxypyrimidin-5-yl)methyl)adamantan-1-amine] | 0 to 30%
CCSc1ncc(CNC23CC4CC(CC(C4)C2)C3)cn1 [Example 56b, N-((2-(ethylthio)pyrimidin-5-yl)methyl)adamantan-1-amine] | 0 to 30%
c1nc(N2CCOCC2)ncc1CNC12CC3CC(CC(C3)C1)C2 [Example 57b, N-((2-morpholinopyrimidin-5-yl)methyl)adamantan-1-amine] | 0 to 30%
c1nc(N2CCCCC2)ncc1CNC12CC3CC(CC(C3)C1)C2 [Example 58b, N-((2-(piperidin-1-yl)pyrimidin-5-yl)methyl)adamantan-1-amine] | 0 to 30%
CN(C)c1ncc(CNC23CC4CC(CC(C4)C2)C3)cn1 [Example 59b, N-((2-dimethylaminopyrimidin-5-yl)methyl)adamantan-1-amine] | 0 to 30%
CCOC(=O)CN(C)c1ncc(CNC23CC4CC(CC(C4)C2)C3)cn1 [Example 60b, N-((2-methyl(ethylcarboxymethyl)aminopyrimidin-5-yl)methyl)adamantan-1-amine] | 0 to 30%
c1nc(C2CCCCC2)ncc1CNC12CC3CC(CC(C3)C1)C2 [Example 61b, N-((2-cyclohexylpyrimidin-5-yl)methyl)adamantan-1-amine] | 0 to 30%
CCCSc1ncc(CNC23CC4CC(CC(C4)C2)C3)cn1 [Example 62b, N-((2-propylthiopyrimidin-5-yl)methyl)adamantan-1-amine] | 0 to 30%
Cc1cccc(-c2ncc(CNC34CC5CC(CC(C5)C3)C4)cn2)c1 [Example 63b, N-((2-mtolylpyrimidin-5-yl)methyl)adamantan-1-amine] | 0 to 30%
COc1ncc(CNC23CC4CC(CC(C4)C2)C3)c(OC)n1 [Example 64b, N-((2,4-dimethoxypyrimidin-5-yl)methyl)adamantan-1-amine] | 0 to 30%
c1nc(CNC23CC4CC(CC(C4)C2)C3)sc1C1CC1 [Example 65b, Adamantan-1-yl-(5-cyclopropyl-thiazol-2-ylmethyl)-amine] | 0 to 30%
CSc1ccccc1-c1ccc(CNC23CC4CC(CC(C4)C2)C3)cc1 [Example 66b, Adamantan-1-yl-(2′-methylsulfanyl-biphenyl-4-ylmethyl)-amine] | 0 to 30%
CSc1ccccc1-c1ccc(CNC23CC4CC(CC(C4)C2)C3)nc1 [Example 67b, Adamantan-1-yl-[5-(2-methylsulfanyl-phenyl)-pyridin-2-ylmethyl]-amine] | 31 to 95%
Cc1csc(CNC23CC4CC(CC(C4)C2)C3)n1 [Example 68b, Adamantan-1-yl-(4-methyl-thiazol-2-ylmethyl)-amine] | 31 to 95%
COc1ccccc1-c1ccc(CNC23CC4CC(CC(C4)C2)C3)nc1 [Example 69b, Adamantan-1-yl-[5-(2-methoxy-phenyl)-pyridin-2-ylmethyl]-amine] | 0 to 30%
Clc1ccc(CNC23CC4CC(CC(C4)C2)C3)nn1 [Example 70b, Adamantan-1-yl-(6-chloro-pyridazin-3-ylmethyl)-amine] | 31 to 95%
